Reference: patent US20260297042A1, “BIARYLAMIDE DERIVATIVES AND THEIR USE AS PKMYT1 INHIBITORS” (CANCER RESEARCH TECHNOLOGY LIMITED, priority 2023, published 2026)

Tests used:
Human PKMYT1 = target: T1, Human PKMYT1 (Homo sapiens, UniProt Q99640); assay: PKMYT1 biochemical ADP-Glo enzymatic assay; conditions: ADP-Glo
T1 construct: Human PKMYT1 75-362 was cloned as a TEV cleavable 6xHis fusion; 6xHis (TEV cleavable) (cleaved yes); made in house; host or cells: bacterial cells
T1 sequence (Q99640 75-362): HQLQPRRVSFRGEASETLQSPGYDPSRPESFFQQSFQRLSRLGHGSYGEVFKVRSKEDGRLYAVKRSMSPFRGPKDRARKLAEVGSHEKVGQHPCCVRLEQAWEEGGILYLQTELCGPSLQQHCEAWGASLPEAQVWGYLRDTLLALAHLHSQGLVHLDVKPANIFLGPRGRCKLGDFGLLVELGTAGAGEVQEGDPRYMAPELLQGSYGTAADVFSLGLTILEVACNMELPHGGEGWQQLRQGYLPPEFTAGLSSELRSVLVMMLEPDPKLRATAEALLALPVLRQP
In short: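 Compounds were titrated over 10 points (3-fold steps), then 15 nM purified PKMYT1 kinase domain (aa 75-362) and 500 µM ATP were added in pH 7.5 HEPES buffer. After 60 min at 26 °C, remaining ATP was depleted and ADP converted to luminescence for IC50 fitting.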

WEE1 = target: T2, WEE1 (Homo sapiens, UniProt P30291); assay: Selectivity versus WEE1 assay (ADP-Glo enzymatic assay); assay type: biochemical; conditions: for IC50: ADP-Glo; for PKMYT1 vs. WEE1 selectivity: fold difference in selectivity for PKMYT1 over WEE1
T2 construct: purchased Thermo Fisher PR7373A
T2 sequence (P30291 whole entry): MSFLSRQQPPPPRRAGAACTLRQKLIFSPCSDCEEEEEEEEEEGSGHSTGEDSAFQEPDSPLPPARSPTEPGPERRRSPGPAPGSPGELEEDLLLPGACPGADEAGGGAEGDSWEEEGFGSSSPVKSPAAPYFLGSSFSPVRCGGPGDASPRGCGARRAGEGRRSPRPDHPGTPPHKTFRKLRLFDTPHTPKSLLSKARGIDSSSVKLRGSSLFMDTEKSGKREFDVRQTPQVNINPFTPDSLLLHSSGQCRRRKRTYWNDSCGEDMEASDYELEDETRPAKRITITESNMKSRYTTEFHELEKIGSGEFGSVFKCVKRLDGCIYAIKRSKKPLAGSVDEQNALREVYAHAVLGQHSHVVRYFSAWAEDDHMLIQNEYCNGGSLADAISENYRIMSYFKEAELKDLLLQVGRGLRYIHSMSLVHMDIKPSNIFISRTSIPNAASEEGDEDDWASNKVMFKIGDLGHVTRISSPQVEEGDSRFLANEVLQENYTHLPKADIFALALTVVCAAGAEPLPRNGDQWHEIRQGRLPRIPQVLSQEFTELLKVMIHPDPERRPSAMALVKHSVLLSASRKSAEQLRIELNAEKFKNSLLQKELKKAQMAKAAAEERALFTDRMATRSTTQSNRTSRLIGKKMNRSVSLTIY
In short: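 Compounds were pre-dispensed, enzyme (15 nM final) was added in pH 7.5 HEPES buffer, and ATP ([…]) then started a 60 min incubation at 26° C. Afterwards ADP-Glo reagents were added in turn and luminescence was measured to derive IC50 values.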

[1] = target: T3, Cellular PKMYT1 Biomarker CDK1 pT14 (Homo sapiens, UniProt Q99640); assay: Inhibition of cellular PKMYT1 biomarker CDK1 pT14 in OVCAR 3 cells (immunoblot); assay type: cell-based; conditions: 20 hours incubation
T3 construct: read-out CDK1 phospho-T14 immunoblot
T3 sequence (Q99640 1-499): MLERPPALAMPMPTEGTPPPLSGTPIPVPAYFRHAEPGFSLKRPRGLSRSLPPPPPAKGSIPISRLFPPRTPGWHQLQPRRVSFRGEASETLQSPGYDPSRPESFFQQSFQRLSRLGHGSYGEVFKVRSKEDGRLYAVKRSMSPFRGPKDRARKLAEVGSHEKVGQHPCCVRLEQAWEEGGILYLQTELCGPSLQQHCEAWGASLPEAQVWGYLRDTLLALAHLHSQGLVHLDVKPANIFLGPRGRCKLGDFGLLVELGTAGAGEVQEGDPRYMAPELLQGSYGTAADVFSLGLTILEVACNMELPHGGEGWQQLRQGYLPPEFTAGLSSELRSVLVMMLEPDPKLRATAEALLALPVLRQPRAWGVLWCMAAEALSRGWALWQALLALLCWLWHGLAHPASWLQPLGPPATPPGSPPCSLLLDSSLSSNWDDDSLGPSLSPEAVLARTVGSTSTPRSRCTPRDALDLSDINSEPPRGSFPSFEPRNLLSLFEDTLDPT
Description: To determine compound PKMYT1 IC50 in a cellular assay, OVCAR 3 cells were incubated at 37° C. in 5% CO2 atmosphere. The cells were maintained in RPMI medium supplemented with 20% foetal bovine serum, 1X non essential amino acids, 1 mM sodium pyruvate, Glutamax and insulin. Cells were seeded into 12-well plates at low density (50,000-200,000 cells per well), grown to confluence (~350-400,000 cells per well) and then treated with a range of concentrations of PKMYT1 inhibitors. The cells were incubated 20 hours and then harvested into 1X Laemmli Sample Buffer (BIORAD) without 2-mercaptoethanol, heated to 95° C. for 5 min, centrifuged and sonicated using a microprobe for 15 sec, 21W to shear the DNA.
The samples were analysed by immunoblot on a Jess Automated Western Blot System (BioTechne). The samples were separated using the 12-230 kDa Separation Module (BioTechne,) and blotted using an anti-CDK1 phospho T14 antibody (Abcam, #ab58509) and an anti-vinculin antibody (Abcam, #126002). Specific binding was detected by fluorescence using the Anti-Rabbit Detection Module (BioTechne, #DM-001), quantified using Compass for Simple Western software, and IC50 values were calculated by regression analysis in GraphPad Prism.

OVCAR 3 cells = assay: Cancer cell line proliferation assay, ATP-based cell viability (Cell Titre Glow), OVCAR 3 (CCNE1-amplified); conditions: KYSE30 (normal CCNE1) GI50 vs. OVCAR 3 (CCNE1-amplified) GI50
In short: (§1)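 CellTiter-Glo luminescence endpoint; PKMYT1 inhibitor exposure; GI50 = conc. for 50% growth inhibition, curve-fitted.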

KYSE-30 cells = assay: Cancer cell line proliferation assay, ATP-based cell viability (Cell Titre Glow), KYSE-30 (normal CCNE1); conditions: Homo sapiens, KYSE-30 cells (normal CCNE1), concentration that achieves 50% cell growth proliferation inhibition, read-out: KYSE30 Gl50
In short: as §1

[2] = PKMYT1 kinase domain 15 nM, banded values
[3] = 15 nM PKMYT1 kinase domain, 500 µM ATP, 60 minutes at 26° C., banded
[4] = 15 nM WEE1, 60 minutes at 26° C., banded
[5] = banded, ">N" = at least in this band but could be higher

Compound | IC50 (Human PKMYT1; [2]) [nM] | IC50 (WEE1; WEE1 15 nM, banded values) [nM] | PKMYT1 vs. WEE1 selectivity (WEE1; banded) | IC50 [1] [nM] | IC50 (Human PKMYT1; [3]) [nM] | IC50 (WEE1; [4]) [nM] | PKMYT1 vs. WEE1 selectivity (WEE1; [5]) | Selectivity ratio KYSE30 Gl50 vs. OVCAR3 Gl50 (OVCAR 3 cells) | GI50 (KYSE-30 cells) [nM]
Cc1ccc(O)c(C)c1NC(=O)c1cnc(Nc2ncc(F)cc2F)s1 [BAA-413, 2-((3,5-difluoropyridin-2-yl)amino)-N-(3-hydroxy-2,6-dimethylphenyl)thiazole-5-carboxamide] | < 50 | > 11000 | Z (>5000 fold) | 100 to 1000 |  |  |  |  | 
COCCN(C)C(=O)Cn1cc(C)c(Nc2ncc(C(=O)Nc3c(C)ccc(O)c3C)s2)n1 [BAA-549, N-(3-Hydroxy-2,6-dimethylphenyl)-2-((1-(2-((2-methoxyethyl)(methyl)amino)-2-oxoethyl)-4-methyl-1H-pyrazol-3-yl)amino)thiazole-5-carboxamide] | < 50 | > 11000 | X (100-<1000 fold) | < 100 |  |  |  |  | 
Cc1cn(CC(=O)N2CCCC2)nc1Nc1ncc(C(=O)Nc2c(C)cc(Cl)c(O)c2C)s1 [BAA-553, N-(4-chloro-3-hydroxy-2,6-dimethylphenyl)-2-((4-methyl-1-(2-oxo-2-(pyrrolidin-1-yl)ethyl)-1H-pyrazol-3-yl)amino) thiazole-5-carboxamide] | 50 to 1000 | > 11000 | X (100-<1000 fold) | 100 to 1000 |  |  |  |  | 
CCN(CC)C(=O)C(CO)n1cc(C)c(Nc2ncc(C(=O)Nc3c(C)ccc(O)c3C)s2)n1 (stereo not shown) [BAA-576, 2-((1-(1-(diethylamino)-3-hydroxy-1-oxopropan-2-yl)-4-methyl-1H-pyrazol-3-yl)amino)-N-(3-hydroxy-2,6-dimethylphenyl)thiazole-5-carboxamide] | < 50 | 1000 to 11000 | X (100-<1000 fold) | < 100 |  |  |  |  | 
Cc1cc(Nc2ncc(C(=O)Nc3c(C)ccc(O)c3C)s2)ncn1 [BAA-580, N-(3-hydroxy-2,6-dimethylphenyl)-2-((6-methylpyrimidin-4-yl)amino)thiazole-5-carboxamide] | < 50 | 1000 to 11000 | X (100-<1000 fold) | 100 to 1000 |  |  |  |  | 
Cc1cc(Nc2ncc(C(=O)Nc3c(C)ccc(O)c3C)s2)n(C2CCCC2)n1 [BAA-231, 2-((1-cyclopentyl-3-methyl-1H-pyrazol-5-yl)amino)-N-(3-hydroxy-2,6-dimethylphenyl)thiazole-5-carboxamide] |  |  |  | 100 to 1000 | 50 to 1000 | > 11000 | Y (1000-5000 fold) |  | 
Cc1ccc(O)c(C)c1NC(=O)c1cnc(Nc2cccc(F)n2)s1 [BAA-406, 2-((6-fluoropyridin-2-yl)amino)-N-(3-hydroxy-2,6-dimethylphenyl)thiazole-5-carboxamide] | < 50 | 1000 to 11000 | X (100-<1000 fold) | < 100 |  |  |  |  | 
Cc1cn(-c2cccc(C(F)(F)F)c2)nc1Nc1ncc(C(=O)Nc2c(C)ccc(O)c2C)s1 [BAA-370, N-(3-hydroxy-2,6-dimethylphenyl)-2-((4-methyl-1-(3-(trifluoromethyl)phenyl)-1H-pyrazol-3-yl)amino)thiazole-5-carboxamide] |  |  |  |  | < 50 | > 11000 | X (100-<1000 fold) | X (3-20 fold) | 500 to 5000
C=CC(=O)Nc1ccc(C)c(Nc2ncc(C(=O)Nc3c(C)ccc(O)c3C)s2)n1 [BAA-341, 2-((6-Acrylamido-3-methylpyridin-2-yl)amino)-N-(3-hydroxy-2,6-dimethylphenyl)thiazole-5-carboxamide] |  |  |  |  | < 50 | 1000 to 11000 | X (100-<1000 fold) | X (3-20 fold) | 500 to 5000
Cc1ccc(O)c(C)c1NC(=O)c1cnc(Nc2cccc(-c3ccc(F)cc3)n2)s1 [BAA-306, 2-((6-(4-fluorophenyl)pyridin-2-yl)amino)-N-(3-hydroxy-2,6-dimethylphenyl)thiazole-5-carboxamide] |  |  |  |  | 50 to 1000 | > 11000 | X (100-<1000 fold) | X (3-20 fold) | 500 to 5000
Cc1ccc(O)c(C)c1NC(=O)c1cnc(Nc2ncnn3cccc23)s1 [BAA-450, N-(3-hydroxy-2,6-dimethylphenyl)-2-(pyrrolo[2,1-f][1,2,4]triazin-4-ylamino)thiazole-5-carboxamide] | < 50 | 1000 to 11000 | X (100-<1000 fold) |  |  |  |  | X (3-20 fold) | > 5000
Cc1ccc(O)c(C)c1NC(=O)c1cnc(Nc2cc(C)n(C3CCCC3)n2)s1 [BAA-232, 2-((1-cyclopentyl-5-methyl-1H-pyrazol-3-yl)amino)-N-(3-hydroxy-2,6-dimethylphenyl)thiazole-5-carboxamide] |  |  |  |  | < 50 | 1000 to 11000 | W (10-<100 fold) | Y (>20 fold) | > 5000
COc1ccc(NC(=O)C(C)(C)C)nc1Nc1ncc(C(=O)Nc2c(C)ccc(O)c2C)s1.Cl [BAA-330, N-(3-Hydroxy-2.6-dimethylphenyl)-2-((3-methoxy-6-pivalamidopyridin-2-yl)amino)thiazole-5-carboxamide hydrochloride] |  |  |  |  | < 50 | > 11000 | Y (1000-5000 fold) | Y (>20 fold) | 500 to 5000
Cc1ccc(O)c(C)c1NC(=O)c1cnc(Nc2cc(-c3ccc(F)cc3)ccn2)s1 [BAA-294, 2-((4-(4-fluorophenyl)pyridin-2-yl)amino)-N-(3-hydroxy-2,6-dimethylphenyl)thiazole-5-carboxamide] |  |  |  |  | 50 to 1000 | > 11000 | X (100-<1000 fold) | Y (>20 fold) | > 5000
Cc1ccc(O)c(C)c1NC(=O)c1cnc(Nc2cccc(-c3cc(F)cc(F)c3)n2)s1 [BAA-315, 2-((6-(3,5-difluorophenyl)pyridin-2-yl)amino)-N-(3-hydroxy-2,6-dimethylphenyl)thiazole-5-carboxamide] |  |  |  |  | < 50 | > 11000 | Y (1000-5000 fold) | Y (>20 fold) | 500 to 5000
Cc1ccc(O)c(C)c1NC(=O)c1cnc(Nc2nn(C)c(C)c2C)s1 [BAA-128, N-(3-hydroxy-2,6-dimethyl-phenyl)-2-[(1,4,5-trimethylpyrazol-3-yl)amino]thiazole-5-carboxamide] |  |  |  |  | 50 to 1000 | 1000 to 11000 | X (100-<1000 fold) | Y (>20 fold) | > 5000
